In PMC4550830, “Pheromone binding proteins enhance the sensitivity of olfactory receptors to sex pheromones in Chilo suppressalis” (Scientific Reports, 2015):
“And” between values parts separate entries of the source, which are not always exact repeats. Equal values may be shown once. Values belong to the compound of their own block, whether it stands above or below them.

How the values were obtained:
CsupPBP3 = biological target: T1, CsupPBP3 (Chilo suppressalis, UniProt F6K0S3); assay: Fluorescence binding assay (1-NPN titration and competitive displacement), CsupPBP3; conditions: 2 μM protein in 50 mM Tris-HCl titrated with 1-NPN, triplicates
T1 sequence (F6K0S3 22-166): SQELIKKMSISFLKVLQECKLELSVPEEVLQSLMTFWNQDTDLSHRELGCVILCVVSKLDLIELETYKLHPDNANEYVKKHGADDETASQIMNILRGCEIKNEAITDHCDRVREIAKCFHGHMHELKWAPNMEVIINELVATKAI
Procedure: In order to measure the affinity of CsupPBP1–4 to the fluorescent probe N-phenyl-1-naphthylamine (1-NPN), a 2 μM solution of each CsupPBP in 50 mM Tris-HCl buffer was titrated with 1 mM 1-NPN in methanol to final concentrations of 2–16 μM. The affinities of CsupPBP1–4 to other ligands were measured in competitive binding assays, where a 2 μM solution of both CsupPBPs and 1-NPN was titrated with 1 mM methanol solutions of each lignd to final concentrations of 0.2–1.6 μM. The Prism software was used to analyse the data and plot the binding curves. The ability of ligand to compete with 1-NPN was measured in competitive binding assays, where a mixture of the protein and 1-NPN, both at the concentration of 2 μM were titrated with 0.1 mM or 1 mM solutions of each ligand to the final concentrations reported in the figures. Fluorescence intensities are reported as percent of the values measured in the absence of competitors. All experiments were performed in triplicates and mean values and standard errors are reported. Binding constants of competitors were calculated from the corresponding IC50 values using the equation: KD = [IC50]/1 + [1-NPN]/K1-NPN, [1-NPN] being the free concentration of 1-NPN and K1-NPN being the dissociation constant of the complex Protein/1-NPN.

CsupPR2/CsupOrco = assay: Two-electrode voltage clamp recording from Xenopus oocytes coexpressing CsupPR2/CsupOrco; assay type: cell-based, Chilo suppressalis
Excerpt: (§1) The ORFs encoding CsupPRs were amplified and cloned into pT7Ts vector using specific primers (Supplementary Table S1). The cRNAs of all CsupPRs were synthesized using mMESSAGE Mmachine T7 kit (Ambion, Austin, TX).
(§2) The entire coding region of each CsupOR was sub-cloned into the XhoI/NotI sites of pT7Ts vector (Invitrogen) (Kozak sequence added before the cutting site in forward primer). The cRNAs of all CsupPRs were synthesized using mMESSAGE Mmachine T7 kit (Ambion, Austin, TX).
(§3) Electrophysiological recordings were performed according to previously reported protocols. Mature healthy oocytes (stage V–VII) (Nasco, Salida, California) were treated with collagenase I(GIBCO, Carlsbad, CA) in washing buffer (96 mM NaCl, 2 mM KCl, 5 mM MgCl2, and 5 mM HEPES [pH = 7.6]) for about 1 h at room temperature. After being cultured overnight at 18 °C, oocytes were microinjected with 27.6 ng CsupORs cRNA and 27.6 ng CsupOrco cRNA. After injection, oocytes were incubated for 4–7 days at 18 °C in 1X Ringer’s solution (96 mM NaCl, 2 mM KCl, 5 mM MgCl2, 0.8 mM CaCl2, and 5 mM HEPES [pH = 7.6]) supplemented with 5% dialysed horse serum, […].
(§4) Whole-cell currents were recorded from the injected Xenopus oocytes with a two-electrode voltage clamp. Odorant induced currents were recorded with an OC-725C oocyte clamp (Warner Instruments, Hamden, CT) at a holding potential of […]. All experiments on PR responses were performed in six replicates, those involving interactions with PBPs in four replicates.
(§5) Data acquisition and analyses were carried out with Digidata 1440A and pCLAMP 10.2 software (Axon Instruments Inc., Union City, CA). Statistical comparison of responses of oocytes to the tested ligands and dose-response data were analysed by GraphPad Prism 5.0 (GraphPad Software Inc., San Diego, CA).
(§6) Tested pheromone components and analogs were purchased from Nimrod Inc (Changzhou, China, purify 96%). they were dissolved in dimethyl sulfoxide (DMSO) to 1 M Stock solutions and stored at −20 °C. Before testing, the stock solutions were diluted with 1 X Ringer’s buffer (96 mM NaCl, 2 mM KCl, 5 mM MgCl2, 0.8 mM CaCl2 and 5 mM HEPES [pH = 7.6]).

CsupPR1/CsupOrco = assay: Two-electrode voltage clamp recording from Xenopus oocytes coexpressing CsupPR1/CsupOrco; assay type: cell-based, Chilo suppressalis; conditions: ligand 10^−4 mol/L, each of the four CsupPBPs versus DMSO alone
Excerpt: as §1, §2
(§7) Electrophysiological recordings were performed according to previously reported protocols. Mature healthy oocytes (stage V–VII) (Nasco, Salida, California) were treated with collagenase I(GIBCO, Carlsbad, CA) in washing buffer (96 mM NaCl, 2 mM KCl, 5 mM MgCl2, and 5 mM HEPES [pH = 7.6]) for about 1 h at room temperature. […]
(§8) Whole-cell currents were recorded from the injected Xenopus oocytes with a two-electrode voltage clamp. Odorant induced currents were recorded with an OC-725C oocyte clamp (Warner Instruments, Hamden, CT) at a holding potential of […]. […]
as §5, with “Diego, CA). […]” for “Diego, CA).”

CsupPR6/CsupOrco = assay: Two-electrode voltage clamp recording from Xenopus oocytes coexpressing CsupPR6/CsupOrco; assay type: cell-based, Chilo suppressalis; conditions: ligand 10^−4 mol/L; for Effect of PBPs on the response of PR6: each of the four CsupPBPs versus DMSO alone
Excerpt: as §1, §2, §3, §4, §5, §6

CsupPR4/CsupOrco = assay: Two-electrode voltage clamp recording from Xenopus oocytes coexpressing CsupPR4/CsupOrco; assay type: cell-based, Chilo suppressalis
Excerpt: as §1, §2, §7, §8
as §5, with “Diego, CA). […]” for “Diego, CA).”

[1] = ligand 10^−4 mol/L, each of the four CsupPBPs versus receptor alone

SMILES: c1ccc(Nc2cccc3ccccc23)cc1 [1-NPN, N-phenyl-1-naphthylamine]
- Kd (CsupPBP3): ~3 µM and 3.1 µM

SMILES: CCCC/C=C\CCCCCCCCO [Z9–14:OH]
- Effect of PBPs on the response of PR2 (CsupPR2/CsupOrco; [1]): inhibitory effect
- Effect of PBPs on the response of PR1 (CsupPR1/CsupOrco): inhibitory effect
- Effect of PBPs on the response of PR6 (CsupPR6/CsupOrco): inhibitory effect
- Effect of PBPs on the response of PR6 (CsupPR6/CsupOrco; listed as 4): reduction of the signal
- Effect of PBPs on the response of PR4 (CsupPR4/CsupOrco; [1]): inhibitory effect

SMILES: CCCCCC/C=C\CCCCCCCC=O [Z9–16:Ald, (Z)-9-hexadecenal]
- Inward current response of PR4 (CsupPR4/CsupOrco; ligand 0.1 mM, no PBP, n = 6): specifically tuned

- Increase in sensitivity (EC50) of PR2 in the presence of PBP1 (CsupPR2/CsupOrco; dose-response with versus without PBP1): to minor extents
- Increase in sensitivity (EC50) of PR2 in the presence of PBP2 (CsupPR2/CsupOrco; dose-response with versus without PBP2): more than one order of magnitude
- Increase in sensitivity (EC50) of PR2 in the presence of PBP3 (CsupPR2/CsupOrco; dose-response with versus without PBP3): to minor extents
- Change in sensitivity (EC50) of PR2 in the presence of PBP4 (CsupPR2/CsupOrco; dose-response with versus without PBP4): not affected
SMILES: CCCC/C=C\CCCCCCCCCC=O [Z11–16:Ald, (Z)-11-hexadecenal]
- Response of PR6 in the presence of PBP4 compared with other PBPs (CsupPR6/CsupOrco; PBP4): more strongly activated
- Effect of PBPs on the response of PR6 (CsupPR6/CsupOrco): increased
